Reference: patent US7482459B2, “[4-(5-aminomethyl-2-fluoro-phenyl)-piperidin-1-yl]-(4-bromo-3-methyl-5-propoxy-thiophen-2-yl)-methanone hydrochloride as an inhibitor of mast cell tryptase” (Aventis Pharmaceuticals Inc., priority 2004, dated 2009)
Structures can show the parent of a compound that is named as a salt.

Experiments:
[1] = biological target: T1, recombinant human β tryptase (Homo sapiens, UniProt Q15661); test: β-Tryptase inhibitory potency, chromogenic enzyme assay (S2366 substrate); format: biochemical
T1 construct: host or cells: yeast cells
T1 sequence (Q15661 31-275): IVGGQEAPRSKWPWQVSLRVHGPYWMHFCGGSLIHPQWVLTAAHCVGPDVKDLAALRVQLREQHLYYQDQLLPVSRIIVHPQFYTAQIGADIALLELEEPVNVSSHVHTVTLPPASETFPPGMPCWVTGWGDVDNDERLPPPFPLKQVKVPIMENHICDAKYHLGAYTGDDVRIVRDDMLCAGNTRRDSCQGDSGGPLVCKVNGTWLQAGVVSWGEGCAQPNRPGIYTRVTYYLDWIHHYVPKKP
Procedure: Tryptase inhibition activity is confirmed using either isolated human lung tryptase or recombinant human β tryptase expressed in yeast cells. Essentially equivalent results are obtained using isolated native enzyme or the expressed enzyme. The assay procedure employs a 96 well microplate (Costar 3590) using L-pyroglutamyl-L-prolyl-L-arginine-para-nitroanilide (S2366: Quadratech) as substrate (essentially as described by McEuen et. al. Biochem Pharm, 1996, 52, pages 331-340). Assays are performed at room temperature using 0.5mM substrate (2×Km) and the microplate is read on a microplate reader (Beckman Biomek Plate reader) at 405 nm wavelength.
Materials and Methods for Tryptase Primary Screen (Chromogenic assay)
• S2366 (Stock solutions of 2.5 mM).
• Purified recombinant beta Tryptase Stocks of 310 μg/mL. Protocol (Single Point Determination) • Add 60 μL of diluted substrate (final concentration of 500 μM in assay buffer) to each well • Add compound in duplicates, final concentration of 20 μM, volume 20 μL • Add enzyme at a final concentration of 50 ng/mL in a volume of 20 μL • Total volume for each well is 100 μL • Agitate briefly to mix and incubate at room temp in the dark for 30 minutes • Read absorbencies at […]

[2] = Plasma, lung and BAL drug levels in guinea pigs; format: in vivo, guinea pig
Procedure: Plasma and Lung Drug Levels Plasma and lung compound levels are determined in satellite groups. Three to four guinea pigs from each of the experimental-drug treatment groups are used for the determination of drug levels. At the indicated time point, (either 2- or 24 hours after dosing), animals are euthanized, and 1 mL blood samples are obtained by cardiac puncture and collected into heparin-coated syringes containing 20 μL (per 1 mL of blood) of a 5 mM hydralazine solution. Plasma is separated from the cellular component of the blood by centrifugation, and stored at −20° C. until assayed. Lung samples are dissected free of connective tissues, blotted dry, weighed and stored in 20 mL vials containing 5 mL of a 5 mM hydralazine solution in saline. The frozen plasma samples are then transferred on dry ice to the Pilot PK group for compound levels determination.

[3] = system: Airway Hyperresponsiveness (AHR) to histamine in sensitized guinea pigs; test: Guinea pig model of airway hyperreactivity (AHR to histamine after ovalbumin sensitization and challenge); format: in vivo
Procedure: Sensitization and drug treatment: Male Hartley guinea pigs (225-250 g) are sensitized with ovalbumin (0.5 mL of 1% solution, i.p. and s.c.). On day 4, animals received a booster injection (i.p.) of 0.5 mL of 1% ovalbumin. On day 21, animals are orally dosed (2mL/kg) with either vehicle (0.5% methylcellulose/0.2% Tween 80) or test compound 2 hours prior to antigen challenge. Thirty minutes before antigen challenge the animals are also injected with mepyramine (30 mg/kg, i.p.) to prevent anaphylactic collapse. Animals are then exposed for 5 minutes to an aerosol of either saline (control animals) or 1% ovalbumin using a deVilbiss Ultraneb nebulizer.
AHR measurement: Eighteen to twenty four hours after challenge, animals are anesthetized with a combination of ketamine (133 mg/kg) and xylazine (24 mg/kg) given intramuscularly, surgically prepared and then mounted in a whole body plethysmograph for lung function measurement. Animals are connected to Ugo-Basile ventilators delivering a tidal volume of 1 mL/100 g at a rate of 50 breaths/minute via a tracheal cannula. The jugular vein is also cannulated for histamine challenge. A water filled esophageal cannula is placed such that transpulmonary pressure is recordable. Transpulmonary pressure is measured as the difference between the tracheal and esophageal cannulas using a differential pressure transducer. The volume, airflow, and transpulmonary pressure signals are monitored using a pulmonary analysis system (Buxco XA software) and used to calculate pulmonary resistance (cm H2O/mL/s) and dynamic compliance (mL/cm H2O). Airway resistance and dynamic compliance are computed on a breath by breath basis. Histamine is administered intravenously and reactivity to increasing concentrations (0.3-20 μg/kg) assessed. ED50's are estimated from the area under the curve (AUC) values derived from the individual histamine dose-response curves.

[4] = 2 hours after dosing, 1 mg/kg, p.o.
[5] = oral route, sensitized guinea pigs

IC50 ([1]; 0.5 mM substrate S2366 (2×Km), room temperature): 76 nM | Ki ([1]; calculated from IC50: Ki=IC50/(1+[Substrate]/Km)): 15 nM | compound level in lung [2, 4]: appreciable amount | compound level in plasma [2, 4]: detected at a much lower level | compound level in bronchoalveolar lavage fluid (BAL) ([2]; 2 hours after dosing, 1 mg/kg, p.o., not taking into account dilution factor for BAL): appreciable amount | compound level in lung ([2]; 24 hours after dosing): dose-dependent appreciable amount | compound level in plasma ([2]; 24 hours after dosing): no plasma could be detected
Compound: CCCOc1sc(C(=O)N2CCC(c3cc(CN)ccc3F)CC2)c(C)c1Br [Compound I, [4-(5-aminomethyl-2-fluoro-phenyl)-piperidin-1-yl]-(4-bromo-3-methyl-5-propoxy-thiophen-2-yl)-methanone hydrochloride]
ED50 ([3]; Cavia porcellus, dosed 24 hours prior to antigen challenge, read-out: average ED50, duration of action): 0.4 mg/kg | ED50, protection against antigen-stimulated AHR to histamine, as measured by airway resistance and dynamic lung compliance ([3]; oral dosing 2 hours prior to ovalbumin challenge): 0.1 mg/kg | effect on basal airway resistance [3, 5]: no effect | effect on basal dynamic lung compliance [3, 5]: no effect
